Data on three molecules can be found in patent US8541470B2, “Topical pharmaceutical formulation” (Futura Medical Developments Limited, priority 2007, dated 2013).

Each structure is given as a SMILES string. Where a name gives a salt, the structure may show the parent alone.

Series [1] in a line: saturated solubility in solvents. The format is physicochemical.
For series [2] the following is noted: topical regional use; relative to piroxicam; cited from earlier work.

For the molecule `O=C(O)Cc1ccccc1Nc1c(Cl)cccc1Cl` [diclofenac acid], the “saturated solubility in polyethylene glycol” value in series [1] (solvent polyethylene glycol) worked out at 11.18 % w/w. The “saturated solubility in propanol or iso-propanol” value in series [1] (solvent propanol or iso-propanol) was 3-4%. Moreover, the “saturated solubility in pure ethanol” value in series [1] (solvent pure ethanol) was found to be 5 % w/w.
As for `O=C(O)Cc1ccccc1Nc1c(Cl)cccc1Cl` [diclofenac], the efficacy index, factor greater than that for piroxicam in series [2] is ~1000.
`O=C(O)Cc1ccccc1Nc1c(Cl)cccc1Cl` [sodium salt of diclofenac acid, diclofenac sodium]: the “saturated solubility in propylene glycol” value in series [1] (solvent propylene glycol) is reported as “approximately 50 % w/w”.
